{"source": "patent US10980776B2", "about": "“Synergistic pharmaceutical combination for the treatment of squamous cell carcinoma of head and neck” (Piramal Enterprises Limited, priority 2011, dated 2021)", "key": {"SCC-25 cells [1]": {"tested_on": "SCC-25 cells", "assay": "CCK-8 cytotoxicity assay, determination of inhibitory concentrations in SCC-25 cells", "format": "cell-based", "conditions": "SCC-25 cells, 72 hr", "description": "(§1) Logarithmically growing cells were plated at a density of 3×10^3 cells/well and allowed to recover overnight. […] After 72 hours, cell toxicity was determined by CCK-8 (Cell Counting Kit-8) reagent (Dojindo Molecular Technologies, Japan); WST-8 (2-(2-methoxy-4-nitrophenyl)-3-(4-nitrophenyl)-5-(2, 4-disulfophenyl)]-2H-tetrazolium, monosodium salt) assay. In accordance with the manufacturer's instructions, 5 μl/well CCK-8 reagent was added and plates were incubated for 2 hours. The toxicity was determined by measuring the absorbance on Tecan Sapphire multi-fluorescence micro-plate reader (Tecan, Germany, GmbH) at a wavelength of 450 nm corrected to 650 nm and normalized to controls.\n(§2) CCK-8 allows convenient assays using Dojindo's tetrazolium salt, WST [8[(2-(2-methoxy-4-nitrophenyl)-3-(4-nitrophenyl)-5-(2,4-disulfophenyl)-2H-tetrazolium, monosodium salt], which produces a water-soluble formazan dye upon bioreduction in the presence of an electron carrier, 1-Methoxy PMS. CCK-8 solution is added directly to the cells; no pre-mixing of components is required. CCK-8 is a sensitive nonradioactive colorimetric assay for determining the number of viable cells in cell proliferation and cytotoxicity assays. WST-8 is bio-reduced by cellular dehydrogenases to an orange formazan product that is soluble in tissue culture medium. The amount of formazan produced is directly proportional to the number of living cells. The detection sensitivity of cell proliferation assays using WST-8 is higher than assays using the other tetrazolium salts such as MIT, XTT, MTS or WST-1. Optical Density was determined at measurement wavelength of 450 nm and reference wave length of 630 nm.\n(§3) The cells were seeded at a density of 3000 cells/well, in a 200 μL in tissue culture grade 96 well plate and were allowed to recover for 24 hrs in a humidified 5%±0.2 CO2 incubator at 37° C.±0.5° C. […] The final DMSO concentration was 0.5% in wells. Plates were incubated for 48 hrs in humidified 5%±0.2 CO2 incubator at 37±0.5° C. After 48 hrs the plates were removed from CO2 incubator and 5 μL of Cell counting Kit (CCK-8) per well was added. The same plate was kept at 37° C. for 3 hrs, and allowed to come to room temperature. The absorbance at a wavelength of 450 nm was read on Tecan safire reader. The percent cytotoxicity was calculated using the following formula."}, "Detroit-562 cells [2]": {"tested_on": "Detroit-562 cells", "assay": "CCK-8 cytotoxicity assay, determination of inhibitory concentrations in Detroit-562 cells", "format": "cell-based", "conditions": "72 hr", "description": "as §1, §2, §3"}, "FADU cells [3]": {"tested_on": "FADU cells", "assay": "CCK-8 cytotoxicity assay, determination of inhibitory concentrations in FADU cells", "format": "cell-based, human", "conditions": "72 hr", "description": "as §1, §2, §3"}, "SCC-25 cells [4]": {"tested_on": "SCC-25 cells", "assay": "Combination studies (single and sequential combination dosing), % cytotoxicity in SCC-25 cells", "conditions": "SCC-25; single agent at IC70 (compound A 4.1 μM)", "description": "as §1, §2\nSorafenib in the following dose of final concentration 0.18 μM and compound A in the following doses of final concentration 0.1 μM, 0.4 μM and 4.1 μM were analyzed in single dose and in all possible combinations of the dose range for the two anticancer agents mentioned above. The sequence of treatment is as follows; the SCC-25 cells were treated with sorafenib for 0 to 24 hrs. At the end of 24 hrs the cells were washed two times with plain MEM (minimum essential media) medium. Fresh MEM with 10% serum (200 μL/well) was added, followed by treatment with compound A from 24 hrs to 96 hrs.\n(§4) Sorafenib in the following dose of final concentration 0.18 μM and compound B in the following doses of final concentration 0.2 μM, 1.1 μM and 4.8 μM were analyzed in single dose and in all possible combinations of the dose range for the two anticancer agents mentioned above. The sequence of treatment is as follows; the SCC-25 cells were treated with sorafenib for 0 to 24 hrs. At the end of 24 hrs the cells were washed two times with plain MEM medium. Fresh MEM with 10% serum (200 μL/well) was added, followed by treatment with compound B from 24 hrs to 96 hrs.\nLapatinib in the following dose of final concentration 0.2 μM and compound A in the following doses of final concentration 0.2 μM, 0.5 μM and 3.3 μM were analyzed in single dose and in all possible combinations of the dose range for the two drugs mentioned above. The sequence of treatment is as follows; the SCC-25 cells were treated with lapatinib for 0 to 24 hrs. At the end of 24 hrs the cells were washed two times with plain MEM medium. Fresh MEM with 10% serum (200 μL/well) was added, followed by treatment with compound A from 24 hrs to 96 hrs.\n(§5) Lapatinib in the following dose of final concentration 0.2 μM and compound B in the following doses of final concentration 0.2 μM, 1.1 μM and 4.8 μM were analyzed in single dose and in all possible combinations of the dose range for the two drugs mentioned above. The sequence of treatment is as follows; the SCC-25 cells were treated with lapatinib for 0 to 24 hrs. At the end of 24 hrs the cells were washed two times with plain MEM medium. Fresh MEM with 10% serum (200 μL/well) was added, followed by treatment with compound A from 24 hrs to 96 hrs."}, "Detroit-562 cells [5]": {"tested_on": "Detroit-562 cells", "assay": "Combination studies (single and sequential combination dosing), % cytotoxicity in Detroit-562 cells", "conditions": "Detroit-562", "description": "as §1, §2\nas §4, with “1.8” for “0.18”, “A” for “B”, “0.5” for “0.2”, “1.3” for “1.1”, “12.1” for “4.8”, “Detroit-562” for “the SCC-25”\nas §4, with “1.8” for “0.18”, “2.7” for “0.2”, “14.1” for “1.1”, “25.2” for “4.8”, “Detroit-562” for “SCC-25”\nLapatinib in the following dose of final concentration 1 μM and compound A in the following doses of final concentration 0.5 μM, 1.3 μM and 12.1 μM were analyzed in single dose and in all possible combinations of the dose range for the two anticancer agents mentioned above. The sequence of treatment is as follows; the Detroit-562 cells were treated with lapatinib for 0 to 24 hrs. At the end of 24 hrs the cells were washed two times with plain MEM medium. Fresh MEM with 10% serum (200 μL/well) was added, followed by treatment with compound A from 24 hrs to 96 hrs.\nas §5, with “final concentration 1.0 μM and” for “final concentration 0.2 μM and”, “final concentration 2.7 μM, 14.1” for “final concentration 0.2 μM, 1.1”, “2.7 μM, 14.1 μM and” for “0.2 μM, 1.1 μM and”, “μM and 25.2 μM were” for “μM and 4.8 μM were”, “follows; the Detroit-562 cells were” for “follows; the SCC-25 cells were”"}, "[6]": {"tested_on": "FaDu (hypopharyngeal squamous cell carcinoma) xenografts", "assay": "In vivo efficacy in human head and neck cancer FaDu xenografts", "conditions": "FaDu xenografts in SCID mice; end of treatment, after 18 days; Compound A 35 mpk i.p. once daily 5 days a week; cisplatin 1 mpk i.p. once a week; cetuximab 2.5 mpk twice a week; 3 weeks", "experimental": "In-vivo studies were carried out according to the method described in Clinical cancer search, 2003, 9, 6052-6061; the disclosure of which is incorporated herein by reference for the teaching of the assay.\nThe in-vivo studies were carried out using Xenograft models in Severe combined immune deficiency (SCID) mice strain—CbySmn.CB17-Prkdcscid/J, by the method described below. The statistically significant number of mice per group (n=6) was chosen in order to be able to statistically evaluate the study data.\nFaDu cells were grown in MEM (minimum essential media) medium containing non-essential amino acids and 10% fetal calf serum in 5% CO2 incubator at 37° C. Cells were pelleted by centrifugation at 1000 rpm for 10 minutes. Cells were resuspended in pre-chilled mixture of saline to get a count of 6×10^6 cells per mL; 0.2 ml of this cell suspension was kept on ice and injected by subcutaneous (s.c.) route in SCID mice. Mice were observed every alternate day for palpable tumor mass. Once the tumor size reached a size of 3-5 mm in diameter, animals were randomized into respective groups of treatment and untreated controls. The treatment groups comprised of 5 groups viz. […] The control group received no treatment.\nMeasurement of tumor was done every 2-3 days apart. Growth inhibition percentage (GI %) was calculated at the end of experiment."}, "FADU cells [7]": {"tested_on": "FADU cells"}}, "data": [{"smiles": "CN1CC[C@@H](c2c(O)cc(O)c3c(=O)cc(-c4ccccc4Cl)oc23)[C@@H]1CO.Cl", "note": "(relative stereo) [Compound A, (+)-trans-2-(2-Chloro-phenyl)-5,7-dihydroxy-8-(2-hydroxy-methyl-1-methyl-pyrrolidin-3-yl)-chromen-4-one hydrochloride]", "values": [{"measurement": "IC30", "setting": "SCC-25 cells [1]", "result": 100, "unit": "nM"}, {"measurement": "IC70", "setting": "SCC-25 cells [1]", "result": 4100, "unit": "nM"}, {"measurement": "IC90", "setting": "SCC-25 cells [1]", "result": 33300, "unit": "nM"}, {"measurement": "IC50", "setting": "SCC-25 cells [1]; read-out: IC50", "result": 400, "unit": "nM"}, {"measurement": "IC10", "setting": "Detroit-562 cells [2]", "result": 100, "unit": "nM"}, {"measurement": "IC30", "setting": "Detroit-562 cells [2]", "result": 500, "unit": "nM"}, {"measurement": "IC50", "setting": "Detroit-562 cells [2]", "result": 1300, "unit": "nM"}, {"measurement": "IC70", "setting": "Detroit-562 cells [2]", "result": 12100, "unit": "nM"}, {"measurement": "IC90", "setting": "Detroit-562 cells [2]", "result": 26300, "unit": "nM"}, {"measurement": "IC10", "setting": "FADU cells [3]", "result": 80, "unit": "nM"}, {"measurement": "IC30", "setting": "FADU cells [3]", "result": 200, "unit": "nM"}, {"measurement": "IC50", "setting": "FADU cells [3]", "result": 1300, "unit": "nM"}, {"measurement": "IC70", "setting": "FADU cells [3]", "result": 8300, "unit": "nM"}, {"measurement": "IC90", "setting": "FADU cells [3]", "result": 28300, "unit": "nM"}, {"measurement": "% Cytotoxicity", "setting": "SCC-25 cells [4]", "result": 29, "unit": "%"}, {"measurement": "% Cytotoxicity", "setting": "Detroit-562 cells [5]; single agent at IC50 (compound A 1.3 μM), lapatinib study", "result": 22, "unit": "%"}, {"measurement": "% Cytotoxicity", "setting": "Detroit-562 cells [5]; single agent at IC70, cisplatin/5-FU/compound A study", "result": 18.02, "unit": "%"}, {"measurement": "% Cytotoxicity", "setting": "Detroit-562 cells [5]; single agent at IC70, erlotinib study", "result": 34.32, "unit": "%"}, {"measurement": "Tumor Growth inhibition (%)", "setting": "[6]", "result": 11, "unit": "%"}, {"measurement": "cytotoxicity", "setting": "FADU cells [7]", "result": 18, "unit": "%"}]}]}
